According to patent publication US20260262643A1, “HERBICIDAL BENZOXAZINES” (FMC CORPORATION, priority 2022, published 2026):

Tests used:
[1] = tested on: ragweed; assay: Test C preemergence; type: in vivo, Ambrosia artemisiifolia; conditions: preemergence, 0 to 100 scale (0 no effect, 100 complete control)
Procedure, shortened: (§1)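 Seeds sown in loam soil–sand blend received a directed preemergence soil spray of test chemical in non-phytotoxic solvent with surfactant; postemergence plants (2–10 cm, one- to two-leaf stage) were sprayed with the same formulation. Greenhouse-held 10 days, then visually rated for injury versus untreated controls, 0 (no effect) to 100 (complete control).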

[2] = tested on: barnyardgrass; assay: Test C preemergence; type: in vivo, Echinochloa crusgalli; conditions: preemergence, 0 to 100 scale (0 no effect, 100 complete control)
Procedure, shortened: as §1

[3] = tested on: pigweed, palmer; assay: Test C preemergence; type: in vivo, Amaranthus palmeri; conditions: preemergence, 0 to 100 scale (0 no effect, 100 complete control)
Procedure, shortened: as §1

[4] = tested on: blackgrass; assay: Test C preemergence; type: in vivo, Alopecurus myosuroides; conditions: preemergence, 0 to 100 scale (0 no effect, 100 complete control)
Procedure, shortened: as §1

[5] = tested on: sedge, umbrella; assay: Test D flooded paddy test; type: in vivo, Cyperus difformis; conditions: 250 g ai/ha, applied to paddy water, visual rating after 13 to 14 days, scale 0 to 100 (0 no effect, 100 complete control)
Procedure, shortened: (§2)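 Rating scale 0–100 (0 no effect, 100 complete control), visual, versus controls. Readout at 13–14 days after in-water application to 2-leaf plants in pots flooded 3 cm deep.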

[6] = tested on: pigweed, palmer; assay: Test C postemergence; type: in vivo, Amaranthus palmeri; conditions: postemergence, 10 days
Procedure, shortened: as §1

[7] = tested on: oat, wild; assay: Test C preemergence; type: in vivo, Avena fatua; conditions: preemergence, 0 to 100 scale (0 no effect, 100 complete control)
Procedure, shortened: as §1

[8] = tested on: galium; assay: Test C postemergence; type: in vivo, Galium aparine; conditions: postemergence, 10 days
Procedure, shortened: as §1

[9] = tested on: blackgrass; assay: Test C postemergence; type: in vivo, Alopecurus myosuroides; conditions: postemergence, 10 days
Procedure, shortened: as §1

[10] = tested on: horseweed; assay: Test C postemergence; type: in vivo, Erigeron canadensis; conditions: postemergence, 10 days
Procedure, shortened: as §1

[11] = tested on: barnyardgrass; assay: Test C postemergence; type: in vivo, Echinochloa crusgalli; conditions: postemergence, 10 days
Procedure, shortened: as §1

[12] = tested on: ryegrass, Italian; assay: Test C postemergence; type: in vivo, Lolium multiflorum; conditions: postemergence, 10 days
Procedure, shortened: as §1

[13] = tested on: soybean; assay: Test C postemergence; type: in vivo, Glycine max; conditions: postemergence, 10 days
Procedure, shortened: as §1

[14] = tested on: kochia; assay: Test C postemergence; type: in vivo, Bassia scoparia; conditions: postemergence, 10 days
Procedure, shortened: as §1

[15] = tested on: oat, wild; assay: Test C postemergence; type: in vivo, Avena fatua; conditions: postemergence, 10 days
Procedure, shortened: as §1

[16] = tested on: wheat; assay: Test C preemergence; type: in vivo, Triticum aestivum; conditions: preemergence, 0 to 100 scale (0 no effect, 100 complete control)
Procedure, shortened: as §1

[17] = tested on: soybean; assay: Test C preemergence; type: in vivo, Glycine max; conditions: preemergence, 0 to 100 scale (0 no effect, 100 complete control)
Procedure, shortened: as §1

[18] = tested on: rice; assay: Test D flooded paddy test; type: in vivo, Oryza sativa; conditions: 250 g ai/ha, applied to paddy water, visual rating after 13 to 14 days, scale 0 to 100 (0 no effect, 100 complete control)
Procedure, shortened: as §2

[19] = tested on: green foxtail; assay: Test C postemergence; type: in vivo, Setaria viridis; conditions: postemergence, 10 days
Procedure, shortened: as §1

[20] = tested on: corn; assay: Test C postemergence; type: in vivo, Zea mays; conditions: postemergence, 10 days
Procedure, shortened: as §1

[21] = tested on: green foxtail; assay: Test C preemergence; type: in vivo, Setaria viridis; conditions: preemergence, 0 to 100 scale (0 no effect, 100 complete control)
Procedure, shortened: as §1

[22] = tested on: barnyardgrass; assay: Test D flooded paddy test; type: in vivo, Echinochloa crus-galli; conditions: 250 g ai/ha, applied to paddy water, visual rating after 13 to 14 days, scale 0 to 100 (0 no effect, 100 complete control)
Procedure, shortened: as §2

[23] = tested on: ducksalad; assay: Test D flooded paddy test; type: in vivo, Heteranthera limosa; conditions: 250 g ai/ha, applied to paddy water, visual rating after 13 to 14 days, scale 0 to 100 (0 no effect, 100 complete control)
Procedure, shortened: as §2

[24] = tested on: corn; assay: Test C preemergence; type: in vivo, Zea mays; conditions: preemergence, 0 to 100 scale (0 no effect, 100 complete control)
Procedure, shortened: as §1

[25] = tested on: ryegrass, Italian; assay: Test C preemergence; type: in vivo, Lolium multiflorum; conditions: preemergence, 0 to 100 scale (0 no effect, 100 complete control)
Procedure, shortened: as §1

[26] = tested on: kochia; assay: Test C preemergence; type: in vivo, Bassia scoparia; conditions: preemergence, 0 to 100 scale (0 no effect, 100 complete control)
Procedure, shortened: as §1

[27] = tested on: ragweed; assay: Test C postemergence; type: in vivo, Ambrosia artemisiifolia; conditions: postemergence, 10 days
Procedure, shortened: as §1

[28] = tested on: wheat; assay: Test C postemergence; type: in vivo, Triticum aestivum; conditions: postemergence, 10 days
Procedure, shortened: as §1

[29] = 125 g ai/ha, 0 to 100 scale, 0 no effect, 100 complete control
[30] = 500 g ai/ha, 0 to 100 scale (0 no effect, 100 complete control)

With `CC(C)c1ncn(-c2cccc(C(=O)N3CC(C(F)(F)F)Oc4c(Cl)cccc43)c2)n1` (single isomer, unassigned) [Compound 289] the “Ragweed plant response rating” value ([1]; 500 g ai/ha) was 70, the “Ragweed plant response rating” value ([1]; Test C, 125 g ai/ha) was 50 and the “Barnyardgrass plant response rating” value ([2]; 500 g ai/ha) was 100. For the same molecule, the “Barnyardgrass plant response rating” value ([2]; Test C, 125 g ai/ha) was 60, the “Pigweed, Palmer plant response rating” value ([3]; 500 g ai/ha) was 100 and the “Pigweed, Palmer plant response rating” value ([3]; Test C, 125 g ai/ha) was 100. For the same molecule, the “Blackgrass plant response rating” value ([4]; 500 g ai/ha) was 90, the “Blackgrass plant response rating” value ([4]; Test C, 125 g ai/ha) was 80 and the “Plant response rating, Sedge, Umbrella (Flood)” value [5] was 100. For the same molecule, the “Plant response rating, Pigweed, Palmer” value [6, 29] was 90, the “Plant response rating, Pigweed, Palmer” value [6, 30] was 100 and the “Oat, Wild plant response rating” value ([7]; 500 g ai/ha) was 90. The “Oat, Wild plant response rating” value ([7]; Test C, 125 g ai/ha) was 80, the “Plant response rating, Galium” value [8, 29] was 100 and the “Plant response rating, Galium” value [8, 30] was 100. For the same molecule, the “Plant response rating, Blackgrass” value [9, 29] was 30, the “Plant response rating, Blackgrass” value [9, 30] was 100 and the “Plant response rating, Horseweed” value [10, 29] was 0. For the same molecule, the “Plant response rating, Horseweed” value [10, 30] was 40, the “Plant response rating, Barnyardgrass” value [11, 29] was 30 and the “Plant response rating, Barnyardgrass” value [11, 30] was 60. The “Plant response rating, Ryegrass, Italian” value [12, 29] was 40, the “Plant response rating, Ryegrass, Italian” value [12, 30] was 90 and the “Plant response rating, Soybean” value [13, 29] was 100. The “Plant response rating, Soybean” value [13, 30] was 90, the “Plant response rating, Kochia” value [14, 29] was 80 and the “Plant response rating, Kochia” value [14, 30] was 90. The “Plant response rating, Oat, Wild” value [15, 29] was 30, the “Plant response rating, Oat, Wild” value [15, 30] was 60 and the “Wheat plant response rating” value ([16]; 500 g ai/ha) was 50. The “Wheat plant response rating” value ([16]; Test C, 125 g ai/ha) was 30, the “Soybean plant response rating” value ([17]; 500 g ai/ha) was 90 and the “Soybean plant response rating” value ([17]; Test C, 125 g ai/ha) was 90. For the same molecule, the “Plant response rating, Rice (Flood)” value [18] was 10, the “Plant response rating, Foxtail, Green” value [19, 29] was 20 and the “Plant response rating, Foxtail, Green” value [19, 30] was 90. The “Plant response rating, Corn” value [20, 29] was 20, the “Plant response rating, Corn” value [20, 30] was 30 and the “Foxtail, Green plant response rating” value ([21]; 500 g ai/ha) was 100. For the same molecule, the “Foxtail, Green plant response rating” value ([21]; Test C, 125 g ai/ha) was 100, the “Plant response rating, Barnyardgrass (Flood)” value [22] was 50 and the “Plant response rating, Ducksalad (Flood)” value [23] was 65. For the same molecule, the “Corn plant response rating” value ([24]; 500 g ai/ha) was 20, the “Corn plant response rating” value ([24]; Test C, 125 g ai/ha) was 10 and the “Ryegrass, Italian plant response rating” value ([25]; 500 g ai/ha) was 100. For the same molecule, the “Ryegrass, Italian plant response rating” value ([25]; Test C, 125 g ai/ha) was 100, the “Kochia plant response rating” value ([26]; 500 g ai/ha) was 100 and the “Kochia plant response rating” value ([26]; Test C, 125 g ai/ha) was 70. For the same molecule, the “Plant response rating, Ragweed” value [27, 29] was 60, the “Plant response rating, Ragweed” value [27, 30] was 70 and the “Plant response rating, Wheat” value [28, 29] was 20. The “Plant response rating, Wheat” value [28, 30] was 40.
